Measurements: the NIST ThermoML archive (doi:10.1016/j.fluid.2013.10.033)
± gives the expanded uncertainty stated by the source.

What was measured:
[1] = 298.15 K; 101.33 kPa; Liquid; Vibrating tube method
[2] = refractive index (Na D-line) (dimensionless); settings: 298.15 K; 101.33 kPa; Liquid; Standard Abbe refractometry
[3] = xn = mol fraction of the nth substance listed; settings: 298.15 K, 101 kPa, Liquid, Vibrating tube method

Row | Compound | mass density [1] [kg/m3] | refractive index [2] | other results
1 | CCOS(=O)(=O)[O-].CC[n+]1ccccc1 [1-ethylpyridinium ethyl sulfate] | 1252 ± 0.4 | 1.50525 ± 0.0007 | 
2 | CCOS(=O)(=O)[O-].CC[n+]1ccccc1 [1-ethylpyridinium ethyl sulfate] + C1=CCCCC1 |  |  | mass density ([3]; x2 = 0.041): 1243.4 ± 1.8 kg/m3
3 | CCOS(=O)(=O)[O-].CC[n+]1ccccc1 [1-ethylpyridinium ethyl sulfate] + C1CCCCC1 |  |  | mass density ([3]; x2 = 0.017): 1247.74 ± 1.8 kg/m3
4 | CCOS(=O)(=O)[O-].CC[n+]1ccccc1 [1-ethylpyridinium ethyl sulfate] + C1CCCCCCC1 |  |  | mass density ([3]; x2 = 0.009): 1249.15 ± 1.2 kg/m3
5 | CCOS(=O)(=O)[O-].CC[n+]1ccccc1 [1-ethylpyridinium ethyl sulfate] + CC1CCCCC1 |  |  | mass density ([3]; x2 = 0.013): 1248.79 ± 1.7 kg/m3
6 | CCOS(=O)(=O)[O-].CC[n+]1ccccc1 [1-ethylpyridinium ethyl sulfate] + c1ccccc1 |  |  | mass density ([3]; x2 = 0.406): 1171.69 ± 1.6 kg/m3
7 | c1ccccc1 [benzene] | 873.57 ± 0.11 | 1.49774 ± 0.00068 | 
8 | C1CCCCC1 [cyclohexane] | 773.8 ± 0.13 | 1.4236 ± 0.00068 | 
9 | C1=CCCCC1 [cyclohexene] | 805.69 ± 0.24 | 1.44378 ± 0.0007 | 
10 | C1CCCCCCC1 [cyclooctane] | 831.47 ± 0.12 | 1.45598 ± 0.00068 | 
11 | CC1CCCCC1 [methylcyclohexane] | 765.02 ± 0.24 | 1.42062 ± 0.0007 | 
